Experimental data from US20230165970A1, “COMPOSITIONS AND METHODS FOR THE TREATMENT OF BACTERIAL INFECTIONS” (priority 2017, published 2023).
≈ marks a conversion by molar mass, not a printed value. Where two headings read alike, the source gives them in different places. *1 amine or outer side, *2 acyl side, *3 side chain or, on linkers, in order; H or OH if unused. Where a SMILES comes first, the peptide text is derived from it. Bridges are numbered along the chain shown (N, C = ends). Roman numbers before positions name the chains, in order. [ ]: non-standard residue; d: D form. The star is where a group is joined. ξ: configuration not given here. X9 = C#CCOCCOCCOCCOCCC(=O)N1C[C@@H](C(=O)[*:1])[C@H](C(=O)[*:2])C1; X4 = C#CCOCCOCCOCCOCCNC(=O)CN(CC(=O)[*:1])CC(=O)[*:2]; X10 = O=C([C@@H](N[*:1])[C@H](O)CCc1ccccc1)[*:2]; Propargyl(OCH2CH2)4CO = C#CCOCCOCCOCCOCCC(=O)*; X3 = CCCCC[C@@H](O)[C@H](N[*:1])C(=O)[*:2]; Nle = CCCC[C@H](N)C(=O)O; ξF = NC(Cc1ccccc1)C(=O)O; Dab = NCC[C@H](N)C(=O)O; ξT = CC(O)C(N)C(=O)O; azaGly = NNC(=O)O

What was measured:
[1] = system: Kp 10031; type: cell-based, Klebsiella pneumoniae
Experimental: (§1) Briefly, stock solutions of all antibacterial agents were prepared fresh in appropriate solvents (i.e. PBS, pH 7.4, DMSO, DI, etc.). Stock concentrations for drug conjugates were made at 12.5× the highest final assay concentration. All were serially diluted 2-fold, 8 or 12 times in a 96-well PCR plate (VWR cat. no. 83007-374). Bacterial cell suspensions generated from Mueller-Hinton agar (MHA) plate cultures were prepared in 0.85% saline and adjusted to ˜0.1 OD600 nm. […] For the conjugates, 92 μL of each cell suspension in RPMI B were added in the same 96-well plate assay format. […] Compounds were tested against a 14-strain panel comprised of E. coli (Ec), A. baumannii (Ab), P. aeruginosa (Pa), and K. pneumoniae (Kp) that were obtained from ATCC (Ec 25922, Ec 2489, Ab 19606, Pa 27853, Pa PAO1, Kp 43816, Kp 10031), Centers for Disease Control and Prevention (Ec AR0349), BEI Resources (Ab AB5075), Micromyx LLC (Ab 8990, Kp 6951), and Belgian Coordinated Collections of Microorganisms (Pa LES431) or generated in-house (Ec 25922 64X-1). […] E. coli strain ATCC 25922 and P. aeruginosa strain LES431 were run in the presence and absence of 50% heat-inactivated fetal bovine serum (FBS; Sigma, cat. no. F4135-100 mL). Plates were mixed by shaking then incubated at 35° C. overnight (16-20 h).

[2] = system: Kp 43816; type: cell-based, Klebsiella pneumoniae
Experimental: as §1

[3] = system: Kp 6951 (COL^R); type: cell-based, Klebsiella pneumoniae
Experimental: as §1

[4] = system: Ec AR0349 (mcr-1, COL^R); type: cell-based, Escherichia coli; conditions: media CA-MHB
Experimental: (§2) Briefly, stock solutions of all antibacterial agents were prepared fresh in appropriate solvents (i.e. PBS, pH 7.4, DMSO, DI, etc.). Stock concentrations for drug conjugates were made at 12.5× the highest final assay concentration. All were serially diluted 2-fold, 8 or 12 times in a 96-well PCR plate (VWR cat. no. 83007-374). Bacterial cell suspensions generated from Mueller-Hinton agar (MHA) plate cultures were prepared in 0.85% saline and adjusted to ˜0.1 OD600 nm. Next, cell suspensions were diluted 1:200 in RPMI containing 5% Luria Broth (LB) to improve bacterial growth (BD Difco, cat. no. 244620) to a concentration of ˜5×10^5 CFU (colony-forming units)/mL. Due to poor solubility in Mueller-Hinton broth media, drug conjugates were evaluated in RPMI 1640 medium (+) L-glutamine, (+) sodium bicarbonate, pH 7.4 (“RPMI B”; Gibco, cat. no. 11875-085) as has been described as a more physiologically-relevant media for susceptibility testing of antibacterial compounds (1). For the conjugates, 92 μL of each cell suspension in RPMI B were added in the same 96-well plate assay format. […] Compounds were tested against a 14-strain panel comprised of E. coli (Ec), A. baumannii (Ab), P. aeruginosa (Pa), and K. pneumoniae (Kp) that were obtained from ATCC (Ec 25922, Ec 2489, Ab 19606, Pa 27853, Pa PAO1, Kp 43816, Kp 10031), Centers for Disease Control and Prevention (Ec AR0349), BEI Resources (Ab AB5075), Micromyx LLC (Ab 8990, Kp 6951), and Belgian Coordinated Collections of Microorganisms (Pa LES431) or generated in-house (Ec 25922 64X-1). […] E. coli strain ATCC 25922 and P. aeruginosa strain LES431 were run in the presence and absence of 50% heat-inactivated fetal bovine serum (FBS; Sigma, cat. no. F4135-100 mL). Plates were mixed by shaking then incubated at 35° C. overnight (16-20 h).

[5] = system: Ec 25922 64X-1 (COL^R); type: cell-based, Escherichia coli; conditions: media CA-MHB
Experimental: as §2

[6] = system: Pa 27853; type: cell-based, Pseudomonas aeruginosa
Experimental: as §1

[7] = system: Pa PAO1; type: cell-based, Pseudomonas aeruginosa
Experimental: as §1

[8] = system: Pa LES431; type: cell-based, Pseudomonas aeruginosa
Experimental: as §1

[9] = system: Ab 8990 (COL^R); type: cell-based, Acinetobacter baumannii
Experimental: as §1

[10] = system: Ab AB5075; type: cell-based, Acinetobacter baumannii
Experimental: as §1

[11] = system: Ec 2469; type: cell-based, Escherichia coli
Experimental: as §1

[12] = system: Ec 25922; type: cell-based, Escherichia coli
Experimental: as §1

[13] = system: Ab 19606 (COLhet^R); type: cell-based, Acinetobacter baumannii; conditions: media CA-MHB
Experimental: as §2

[14] = system: LPS from E. coli O111:B4; test: LPS binding/neutralization by Limulus Amebocyte Lysate (LAL) assay; type: biochemical; conditions: LPS 1-10,000 ng/mL, test article 0.25-10 μM; sum of AUCs relative to maximal AUC (Table 14)
Experimental: The LAL assay (Charles River) was used to determine the binding affinity of test articles to LPS.
(§3) For the assay, 25 μL purified LPS from E. coli O111:1B4 (Sigma) at doses ranging from 1-10,000 ng/mL were incubated with 25 μL of test article at concentrations ranging from 0.25-10 NM. After 5 min incubation at 37° C., 50 μL of LAL reagent, which reacts with lipid A portion from LPS, was added to corresponding wells. After 15 min, absorbance at 405 nm was read on EnSpire plate reader (Perkin Elmer). The % LPS neutralization is calculated relative to a PBS control (background) and LPS control at each concentration (positive control).
LPS neutralization=(1−(absorbance test article−PBS with LAL reagent)/(absorbance no test article−PBS with LAL reagent))×100
To obtain a single value of LPS neutralization for each test article, the area under the curve (AUC) for dose-response of test articles from […] for each LPS concentration was calculated using Prism 7 software. The % LPS neutralization is the sum of the AUCs for each LPS concentration determined relative to the maximal AUC achievable×100.
as §3, with “O111:B4” for “O111:1B4”, “μM.” for “NM.”

Question: `C#CCOCCOCCOCCOCCNC(=O)CN(CC(=O)N[C@@H](CCCC)C(=O)N[C@@H](CCN)C(=O)N[C@H](C(=O)NNC(=O)N[C@H]1CCNC(=O)[C@H]([C@@H](C)O)NC(=O)[C@H](CCN)NC(=O)[C@H](CCN)NC(=O)[C@H](CC(C)C)NC(=O)[C@@H](Cc2ccccc2)NC(=O)[C@H](CCN)NC1=O)[C@H](O)CCCCC)CC(=O)N[C@@H](CCCC)C(=O)N[C@@H](CCN)C(=O)N[C@H](C(=O)NNC(=O)N[C@H]1CCNC(=O)[C@H]([C@@H](C)O)NC(=O)[C@H](CCN)NC(=O)[C@H](CCN)NC(=O)[C@H](CC(C)C)NC(=O)[C@@H](Cc2ccccc2)NC(=O)[C@H](CCN)NC1=O)[C@H](O)CCCCC` [Int-111] (I: [Nle][Dab][X3][azaGly][Dab][Dab][dF]L[Dab][Dab]T / II: [Nle][Dab][X3][azaGly][Dab][Dab][dF]L[Dab][Dab]T; lactam I:5-I:C, II:5-II:C; linker I:N-II:N via X4) was tested. Which MIC [1] did it give?
Answer: Its MIC is 4 µg/mL (≈ 1.45 µM).

Question: And the MIC [2]?
Answer: Its MIC is 4 µg/mL (≈ 1.45 µM).

Question: And the MIC [3]?
Answer: Its MIC is 8 µg/mL (≈ 2.91 µM).

Question: And the MIC [4]?
Answer: Its MIC is 4 µg/mL (≈ 1.45 µM).

Question: What about the MIC [5] of the same compound?
Answer: The MIC was 4 µg/mL (≈ 1.45 µM).

Question: What about the MIC [6] of the same compound?
Answer: The MIC was 4 µg/mL (≈ 1.45 µM).

Question: And the MIC ([7]; PAO1)?
Answer: Its MIC is 8 µg/mL (≈ 2.91 µM).

Question: What about the MIC [8] of the same compound?
Answer: Its MIC is 4 µg/mL (≈ 1.45 µM).

Question: And the MIC [9]?
Answer: Its MIC is 32 µg/mL (≈ 11.6 µM).

Question: And the MIC [10]?
Answer: Its MIC is 4 µg/mL (≈ 1.45 µM).

Question: What about the MIC [11] of the same compound?
Answer: The MIC was 4 µg/mL (≈ 1.45 µM).

Question: What about the MIC [12] of the same compound?
Answer: The MIC was 4 µg/mL (≈ 1.45 µM).

Question: And the MIC [13]?
Answer: Its MIC is 4 µg/mL (≈ 1.45 µM).

Question: For `C#CCOCCOCCOCCOCCC(=O)N[C@@H](CCN)C(=O)N[C@H](C(=O)N[C@@H](CCN)C(=O)N[C@H]1CCNC(=O)[C@H]([C@@H](C)O)NC(=O)[C@H](CCN)NC(=O)[C@H](CCN)NC(=O)[C@H](CC(C)C)NC(=O)[C@@H](Cc2ccccc2)NC(=O)[C@H](CCN)NC1=O)[C@H](O)CCc1ccccc1` [Int-83] ({Propargyl(OCH2CH2)4CO}-[Dab][X10][Dab][Dab][Dab][dF]L[Dab][Dab]T; lactam 4-C), which “% LPS neutralization of TM” value [14] is on record?
Answer: Its value is 30.9%.

Question: With `C#CCOCCOCCOCCOCCC(=O)N[C@@H](CCCC)C(=O)N[C@@H](CCN)C(=O)N[C@H](C(=O)NNC(=O)N[C@H]1CCNC(=O)[C@H]([C@@H](C)O)NC(=O)[C@H](CCN)NC(=O)[C@H](CCN)NC(=O)[C@H](CC(C)C)NC(=O)[C@@H](Cc2ccccc2)NC(=O)[C@H](CCN)NC1=O)[C@H](O)CCCCC` [Int-100] ({Propargyl(OCH2CH2)4CO}-[Nle][Dab][X3][azaGly][Dab][Dab][dF]L[Dab][Dab]T; lactam 5-C) as the compound, how does the “% LPS neutralization of TM” value [14] read?
Answer: Its value is 38.9%.

Question: `C#CCOCCOCCOCCOCCC(=O)N1C[C@@H](C(=O)N[C@@H](CCCC)C(=O)N[C@@H](CCN)C(=O)N[C@H](C(=O)NNC(=O)N[C@H]2CCNC(=O)[C@H]([C@@H](C)O)NC(=O)[C@H](CCN)NC(=O)[C@H](CCN)NC(=O)[C@H](CC(C)C)NC(=O)C(Cc3ccccc3)NC(=O)[C@H](CCN)NC2=O)[C@@H](C)O)[C@H](C(=O)N[C@@H](CCCC)C(=O)N[C@@H](CCN)C(=O)N[C@H](C(=O)NNC(=O)N[C@H]2CCNC(=O)C(C(C)O)NC(=O)[C@H](CCN)NC(=O)[C@H](CCN)NC(=O)[C@H](CC(C)C)NC(=O)[C@@H](Cc3ccccc3)NC(=O)[C@H](CCN)NC2=O)[C@@H](C)O)C1` (stereo partly drawn) [Int-107] (I: [Nle][Dab]T[azaGly][Dab][Dab][dF]L[Dab][Dab][ξT] / II: [Nle][Dab]T[azaGly][Dab][Dab][ξF]L[Dab][Dab]T; lactam I:5-I:C, II:5-II:C; linker I:N-II:N via X9) was tested. Which MIC ([1]; Kp 10031, media CA-MHB) did it give?
Answer: The MIC was 2 µg/mL (≈ 0.759 µM).

Question: What about the MIC ([2]; Kp 43816, media CA-MHB) of the same compound?
Answer: Its MIC is 2 µg/mL (≈ 0.759 µM).

Question: And the MIC ([3]; Kp 6951 (COL^R), media CA-MHB)?
Answer: Its MIC is 16 µg/mL (≈ 6.07 µM).

Question: What about the MIC [4] of the same compound?
Answer: Its MIC is 2 µg/mL (≈ 0.759 µM).

Question: What about the MIC [5] of the same compound?
Answer: Its MIC is 4 µg/mL (≈ 1.52 µM).

Question: And the MIC ([6]; Pa 27853, media CA-MHB)?
Answer: The MIC was 2 µg/mL (≈ 0.759 µM).

Question: And the MIC ([7]; Pa PAO1, media CA-MHB)?
Answer: The MIC was 2 µg/mL (≈ 0.759 µM).

Question: What about the MIC ([8]; Pa LES431 + FBS (50%, heat-inactivated), media CA-MHB) of the same compound?
Answer: Its MIC is 8 µg/mL.

Question: And the MIC ([8]; Pa LES431, media CA-MHB)?
Answer: Its MIC is 2 µg/mL (≈ 0.759 µM).

Question: What about the MIC ([9]; Ab 8990 (COL^R), media CA-MHB) of the same compound?
Answer: Its MIC is over 128 µg/mL.

Question: What about the MIC ([10]; Ab AB5075, media CA-MHB) of the same compound?
Answer: The MIC was 2 µg/mL (≈ 0.759 µM).

Question: What about the MIC ([11]; Ec 2469, media CA-MHB) of the same compound?
Answer: Its MIC is 2 µg/mL (≈ 0.759 µM).

Question: And the MIC ([12]; Ec 25922 + FBS (50%, heat-inactivated), media CA-MHB)?
Answer: Its MIC is 0.5 µg/mL.

Question: What about the MIC ([12]; Ec 25922, media CA-MHB) of the same compound?
Answer: Its MIC is 2 µg/mL (≈ 0.759 µM).

Question: What about the MIC [13] of the same compound?
Answer: The MIC was 2 µg/mL (≈ 0.759 µM).
